This note sets out measurements from article PMC7602804 (Nutrients, 2020).

No end group written: not given here.

The data set deals with Caco-2 monolayers. Briefly: Apical to basolateral transport of milk peptides across Caco-2 monolayers (LC-MS/MS of basolateral medium). Format: in vitro ADME, human. Particulars: 2.5 h. The method, then: The human colorectal adenocarcinoma cell line, Caco-2, was obtained from DSMZ (Braunschweig, Germany). The cells were grown to 50–60% confluence in Dulbecco’s Modified Eagle Medium (DMEM) Glutamax cell culture medium, supplemented with 10% heat-inactivated fetal bovine serum, 100 units/mL of penicillin and 100 μg/mL of streptomycin (all from Invitrogen, Carlsbad, CA, USA) in a humidified 5% CO2/95% air atmosphere at 37 °C. The cells used in the experiments were between passages 30 and 40.
The Caco-2 cells used for transport studies were seeded in polyethylene terephthalate culture inserts, with a pore size of 0.4 μm and a growth area of 0.33 cm^2 at a density of approximately 25,000 cells/insert. The Caco-2 cells were grown for three weeks on the porous membrane before they were used for transepithelial transport. The integrity of the monolayers was confirmed by measuring the TEER using a Millicell ERS-2 volt ohmmeter. Only Caco-2 monolayers with TEER values above 400 Ω cm^2 were used for the transport analysis.
Following the TEER value measurement, the Caco-2 and PBEC monolayers were gently washed twice with phosphate-buffered saline, and the transport medium (Hanks’ Balanced Salt solution supplemented with 10 mM of HEPES) was added to the apical and basolateral compartments. The inserts were incubated for 15 min or 2.5 h with the purified milk peptides (0.1 mg/mL) or the synthetic PIGSENSEKTTMPLW peptide (2 µg/mL), after which medium from the apical and basolateral compartments were collected for liquid chromatography tandem mass spectrometry (LC-MS/MS) analysis. Inserts incubated with a medium without peptides served as the control in the transport experiments. Membrane integrity was validated by addition of D-[1-^14C]-Mannitol (3.5 µM, 56.8 mCi/mmol) (Perkin Elmer, Waltham, MA, USA) to the upper chamber of the culture inserts with or without milk peptides for 2.5 h. The passive permeability experiments were performed on four or five individual culture inserts. Basolateral samples were mixed with Ultima Gold liquid scintillation fluid (Perkin Elmer) and counted in a Tri-Carb 2810 TR scintillation counter (Perkin Elmer). The apparent permeability coefficient (Papp, cm/s) was determined as Papp = (dQ/dt)/(AC0) where dQ/dt is the steady state flux (cpm/s), A is the surface area of the cell culture insert membrane and C0 is the initial concentration in the apical compartment (cpm/mL).
LC-MS/MS analysis was performed on a TripleTOF 6600 mass spectrometer equipped with an Exigent nanoLC 415 system (AB Sciex, Les Ulis, France). All samples were micro-purified using 3 M Empore C18 discs packed in pipette tips. The lyophilized samples were dissolved in 0.1% formic acid, injected on a trap column (2 cm × 100 µm inner diameter) and separated on an analytical column packed in-house in a pulled emitter (15 cm × 75 µm inner diameter). All columns were packed with ReproSil-Pur C18-AQ 3 µm resin (courtesy of Dr. Marisch, Ammerbuch-Entringen, Germany). Peptides were eluted directly into the mass spectrometer with a linear gradient from 5 to 35% solvent B (0.1% formic acid in acetonitrile) for 20 min with a flowrate of 250 nL/min, followed after 10 min with 100% solvent B. Data files were converted to Mascot Generic Format using the Raw Converter (version 1.1.0.18) (http://fields.scripps.edu/rawconv/) or the AB Sciex MS Data Converter beta 1.1 (AB Sciex, Les Ulis, France). The generated peak lists were searched against the Bos taurus proteome (UniProt database, https://www.uniprot.org)) using an in-house Mascot search engine (Matrix Science, London, UK). The searches were made without specifying a protease and with oxidation (Met) and phosphorylation (ST) as variable modifications. Peptide tolerance was set to 10 ppm and MS/MS tolerance was set to 0.2 Da. […]
A general note: Caco-2 cells form a polarised layer with tight junctions and transporters.

For the sequence PIGSENSEKTTMPLW [PIGSENSEKTTMPLW], the “Peptide identified in the basolateral chamber of Caco-2 monolayers (transported)” value (Caco-2, 3 weeks on PET inserts 0.4 μm, TEER above 400 Ω cm^2, A-B, mix of 192 purified milk peptides 0.1 mg/mL apical, HBSS + 10 mM HEPES, LC-MS/MS of basolateral medium, identified in two out of three experiments) is “identified in the basolateral chamber”. In addition, the “Fate of synthetic peptide during transport over Caco-2 monolayers” value (synthetic peptide 2 µg/mL apical, LC-MS/MS of basal medium) was “cleaved by carboxypeptidases during the transport”.
